According to patent publication US20170190671A1, “BIS(ARYL)CATECHOL DERIVATIVES AS HERBICIDES” (E I DU PONT DE NEMOURS AND COMPANY, priority 2014, published 2017):

How the values were obtained:
[1] = test system: soybean (Glycine max); experiment: Test C postemergence; assay type: in vivo; conditions: Glycine max, post-emergence, Postemergence, scale 0 to 100, read-out: Plant response rating, Soybean
[2] = test system: yellow nutsedge (Cyperus esculentus); experiment: Test C postemergence; assay type: in vivo; conditions: Cyperus, post-emergence, 336 h, Postemergence, scale 0 to 100, read-out: Plant response rating, Nutsedge, Yellow
[3] = test system: large (Lg) crabgrass (Digitaria sanguinalis); experiment: Test C postemergence; assay type: in vivo; conditions: Digitaria sanguinalis, post-emergence, 336 h, Postemergence, scale 0 to 100, read-out: Plant response rating, Crabgrass, Large
[4] = test system: oilseed rape (Brassica napus); experiment: Test C postemergence; assay type: in vivo; conditions: Brassica napus, post-emergence, Postemergence, scale 0 to 100, read-out: Plant response rating, Oilseed Rape
[5] = test system: barnyardgrass (Echinochloa crus-galli); experiment: Test C postemergence; assay type: in vivo; conditions: Echinochloa crus-galli, post-emergence, Postemergence, scale 0 to 100, read-out: Plant response rating, Barnyardgrass
[6] = test system: wild oat (Avena fatua); experiment: Test C postemergence; assay type: in vivo; conditions: Avena fatua, post-emergence, Postemergence, scale 0 to 100, read-out: Plant response rating, Oat, Wild
[7] = test system: waterhemp (common waterhemp, Amaranthus rudis); experiment: Test C postemergence; assay type: in vivo; conditions: Amaranthus tuberculatus, post-emergence, Postemergence, scale 0 to 100, read-out: Plant response rating, Waterhemp
[8] = test system: lambsquarters (Chenopodium album); experiment: Test C postemergence; assay type: in vivo; conditions: Chenopodium album, post-emergence, 336 h, Postemergence, scale 0 to 100, read-out: Plant response rating, Lambsquarters
[9] = test system: velvetleaf (Abutilon theophrasti); experiment: Test C postemergence; assay type: in vivo; conditions: Abutilon theophrasti, post-emergence, Postemergence, scale 0 to 100, read-out: Plant response rating, Velvetleaf
[10] = test system: Italian ryegrass (Lolium multiflorum); experiment: Test C postemergence; assay type: in vivo; conditions: Lolium multiflorum, post-emergence, 336 h, Postemergence, scale 0 to 100, read-out: Plant response rating, Ryegrass, Italian
[11] = test system: chickweed (common chickweed, Stellaria media); experiment: Test C postemergence; assay type: in vivo; conditions: Stellaria media, post-emergence, Postemergence, scale 0 to 100, read-out: Plant response rating, Chickweed
[12] = test system: pigweed (Amaranthus retroflexus); experiment: Test C postemergence; assay type: in vivo; conditions: Amaranthus retroflexus, post-emergence, 336 h, Postemergence, scale 0 to 100, read-out: Plant response rating, Pigweed
[13] = test system: kochia (Kochia scoparia); experiment: Test C postemergence; assay type: in vivo; conditions: Bassia scoparia, post-emergence, Postemergence, scale 0 to 100, read-out: Plant response rating, Kochia
[14] = test system: blackgrass (Alopecurus myosuroides); experiment: Test C postemergence; assay type: in vivo; conditions: Alopecurus myosuroides, post-emergence, 336 h, Postemergence, scale 0 to 100, read-out: Plant response rating, Blackgrass
[15] = test system: ragweed (common ragweed, Ambrosia elatior); experiment: Test C postemergence; assay type: in vivo; conditions: Ambrosia artemisiifolia, post-emergence, 336 h, Postemergence, scale 0 to 100, read-out: Plant response rating, Ragweed
[16] = test system: johnsongrass (Sorghum halepense); experiment: Test C postemergence; assay type: in vivo; conditions: Sorghum halepense, post-emergence, 336 h, Postemergence, scale 0 to 100, read-out: Plant response rating, Johnsongrass
[17] = test system: corn (Zea mays); experiment: Test C postemergence; assay type: in vivo; conditions: Zea mays, post-emergence, 336 h, Postemergence, scale 0 to 100
[18] = test system: winter wheat (Triticum aestivum); experiment: Test C postemergence; assay type: in vivo; conditions: Triticum aestivum, post-emergence, 336 h, Postemergence, scale 0 to 100, read-out: Plant response rating, Wheat

Structure (SMILES): N#Cc1cccc(Oc2ncc(Cl)cn2)c1Oc1ccc(Cl)cc1 [Compound 36]
- plant injury at 31 g/ha ([1]; 31 g ai/ha): 25%
- plant injury at 62 g/ha ([1]; 62 g ai/ha): 50%
- plant injury at 125 g/ha ([1]; 125 g ai/ha): 45%
- pest or weed control at 31 g/ha ([2]; 31 g ai/ha): 5%
- pest or weed control at 62 g/ha ([2]; 62 g ai/ha): 10%
- pest or weed control at 125 g/ha ([2]; 125 g ai/ha): 15%
- pest or weed control at 16 g/ha ([3]; 16 g ai/ha): 5%
- pest or weed control at 31 g/ha ([3]; 31 g ai/ha): 10%
- pest or weed control at 62 g/ha ([3]; 62 g ai/ha): 10%
- pest or weed control at 125 g/ha ([3]; 125 g ai/ha): 20%
- plant injury at 31 g/ha ([4]; 31 g ai/ha): 85%
- plant injury at 62 g/ha ([4]; 62 g ai/ha): 90%
- plant injury at 125 g/ha ([4]; 125 g ai/ha): 98%
- pest or weed control at 16 g/ha ([5]; 16 g ai/ha): 10%
- pest or weed control at 31 g/ha ([5]; 31 g ai/ha): 10%
- pest or weed control at 62 g/ha ([5]; 62 g ai/ha): 15%
- pest or weed control at 125 g/ha ([5]; 125 g ai/ha): 20%
- pest or weed control at 31 g/ha ([6]; 31 g ai/ha): 30%
- pest or weed control at 62 g/ha ([6]; 62 g ai/ha): 20%
- pest or weed control at 125 g/ha ([6]; 125 g ai/ha): 35%
- pest or weed control at 31 g/ha ([7]; 31 g ai/ha): 90%
- pest or weed control at 62 g/ha ([7]; 62 g ai/ha): 100%
- pest or weed control at 125 g/ha ([7]; 125 g ai/ha): 98%
- pest or weed control at 16 g/ha ([8]; 16 g ai/ha): 90%
- pest or weed control at 31 g/ha ([8]; 31 g ai/ha): 95%
- pest or weed control at 62 g/ha ([8]; 62 g ai/ha): 98%
- pest or weed control at 125 g/ha ([8]; 125 g ai/ha): 100%
- pest or weed control at 31 g/ha ([9]; 31 g ai/ha): 45%
- pest or weed control at 62 g/ha ([9]; 62 g ai/ha): 70%
- pest or weed control at 125 g/ha ([9]; 125 g ai/ha): 80%
- pest or weed control at 31 g/ha ([10]; 31 g ai/ha): 5%
- pest or weed control at 62 g/ha ([10]; 62 g ai/ha): 10%
- pest or weed control at 125 g/ha ([10]; 125 g ai/ha): 30%
- pest or weed control at 16 g/ha ([11]; 16 g ai/ha): 70%
- pest or weed control at 31 g/ha ([11]; 31 g ai/ha): 75%
- pest or weed control at 62 g/ha ([11]; 62 g ai/ha): 80%
- pest or weed control at 125 g/ha ([11]; 125 g ai/ha): 100%
- pest or weed control at 31 g/ha ([12]; 31 g ai/ha): 90%
- pest or weed control at 62 g/ha ([12]; 62 g ai/ha): 98%
- pest or weed control at 125 g/ha ([12]; 125 g ai/ha): 100%
- pest or weed control at 16 g/ha ([13]; 16 g ai/ha): 90%
- pest or weed control at 31 g/ha ([13]; 31 g ai/ha): 95%
- pest or weed control at 62 g/ha ([13]; 62 g ai/ha): 95%
- pest or weed control at 125 g/ha ([13]; 125 g ai/ha): 100%
- pest or weed control at 16 g/ha ([14]; 16 g ai/ha): 5%
- pest or weed control at 31 g/ha ([14]; 31 g ai/ha): 5%
- pest or weed control at 62 g/ha ([14]; 62 g ai/ha): 30%
- pest or weed control at 125 g/ha ([14]; 125 g ai/ha): 30%
- pest or weed control at 31 g/ha ([15]; 31 g ai/ha): 45%
- pest or weed control at 62 g/ha ([15]; 62 g ai/ha): 40%
- pest or weed control at 125 g/ha ([15]; 125 g ai/ha): 75%
- pest or weed control at 16 g/ha ([16]; 16 g ai/ha): 20%
- pest or weed control at 31 g/ha ([16]; 31 g ai/ha): 30%
- pest or weed control at 62 g/ha ([16]; 62 g ai/ha): 35%
- pest or weed control at 125 g/ha ([16]; 125 g ai/ha): 35%
- Corn plant response rating (crop injury, 0 = no effect, 100 = complete kill) at 16 g/ha ([17]; 16 g ai/ha): 10%
- Corn plant response rating (crop injury, 0 = no effect, 100 = complete kill) at 31 g/ha ([17]; 31 g ai/ha): 15%
- Corn plant response rating (crop injury, 0 = no effect, 100 = complete kill) at 62 g/ha ([17]; 62 g ai/ha): 20%
- Corn plant response rating (crop injury, 0 = no effect, 100 = complete kill) at 125 g/ha ([17]; 125 g ai/ha): 20%
- plant injury at 31 g/ha ([18]; 31 g ai/ha): 0%
- plant injury at 62 g/ha ([18]; 62 g ai/ha): 0%
- plant injury at 125 g/ha ([18]; 125 g ai/ha): 5%
- melting point: 172 to 175 °C
